In ChEMBL document CHEMBL4014301, “Design, synthesis and evaluation of 4-substituted anthra[2,1-c][1,2,5]thiadiazole-6,11-dione derivatives as novel non-camptothecin topoisomerase I inhibitors” (Bioorg Med Chem Lett, 2017) one finds IC50 data, which are given here for 21 compounds.

What all share (assay type): functional, cell-based
The subject of test [1] is A549. The test is described as follows: Antiproliferative activity against human A549 cells after 72 hrs by MTT assay. The note with it: Homo sapiens, A549, 72 h. Background: Formazan colour is commonly taken as a measure of viable cells.
Test [2] relates to HCT-116. The test is described as follows: Antiproliferative activity against human HCT116 cells after 72 hrs by MTT assay. The note with it: Homo sapiens, HCT-116, 72 h.
Test [3] concerns ZR-75-30. The test is described as follows: Antiproliferative activity against human ZR-7530 cells after 72 hrs by MTT assay. To be noted: Homo sapiens, ZR-75-30, 72 h.

The IC50 is the concentration at which inhibition is half-maximal. Low readings indicate inhibition by little substance, high ones a need for much substance. In the case of `O=C1c2ccccc2C(=O)c2c1cc(NCc1ccccc1)c1nsnc21`, the IC50 in test [1] is 4 µM; in test [2], 1.9 µM; in test [3] it was 4.5 µM.

`CCCCCCCNc1cc2c(c3nsnc13)C(=O)c1ccccc1C2=O`: the IC50 was found to be 44 µM in test [1], 34 µM in test [2] and 12 µM in test [3].

With `Cc1cccc(S(=O)(=O)c2cc3c(c4nsnc24)C(=O)c2ccccc2C3=O)c1`, the IC50 in test [1] was greater than 100 µM; in test [2] it was 78 µM; in test [3] it was greater than 100 µM.

As for `O=C1c2ccccc2C(=O)c2c1cc(N1CCCC1)c1nsnc21`, the results for the IC50 in test [1], in test [2] and in test [3] were greater than 100 µM, 68 µM and 45 µM, respectively.

For the compound `O=C1c2ccccc2C(=O)c2c1cc(S(=O)(=O)c1ccc(F)cc1)c1nsnc21`, the IC50 in test [1] was greater than 100 µM; in test [2], 23 µM; in test [3], 36 µM.

As to `O=C1c2ccccc2C(=O)c2c1cc(S(=O)(=O)c1nc3ccccc3s1)c1nsnc21`, the IC50 in test [1], in test [2] and in test [3] was greater than 100 µM throughout.

Regarding `O=C1c2ccccc2C(=O)c2c1cc(S(=O)(=O)c1cccc(F)c1)c1nsnc21`, the IC50 was greater than 100 µM in test [1], 24 µM in test [2] and greater than 100 µM in test [3].

`O=C1c2ccccc2C(=O)c2c1cc(Sc1ccc(Br)cc1)c1nsnc21`: the IC50 in test [1], in test [2] and in test [3] was greater than 100 µM in each case.

Turning to `CCOc1cccc(S(=O)(=O)c2cc3c(c4nsnc24)C(=O)c2ccccc2C3=O)c1`, the concentration for half-maximal inhibition (IC50) in test [1], in test [2] and in test [3] was greater than 100 µM in each case.

On to `CC(C)(C)c1ccc(S(=O)(=O)c2cc3c(c4nsnc24)C(=O)c2ccccc2C3=O)cc1`, for which the IC50 is greater than 50 µM in test [1], 34 µM in test [2] and greater than 50 µM in test [3].

As to `O=C1c2ccccc2C(=O)c2c1cc(S(=O)(=O)c1ccccc1)c1nsnc21`, the IC50 is greater than 100 µM in test [1], 35 µM in test [2] and greater than 100 µM in test [3].

For the compound `O=C1c2ccccc2C(=O)c2c1cc(Sc1cccc(Cl)c1)c1nsnc21`, the IC50 in test [1], in test [2] and in test [3] was greater than 100 µM in each case.

`O=C1c2ccccc2C(=O)c2c1cc(S(=O)(=O)c1ccc(Br)cc1)c1nsnc21`: the IC50 was determined as 97 µM in test [1], 18 µM in test [2] and 94 µM in test [3].

Take `O=C1c2ccccc2C(=O)c2c1cc(Sc1ccccc1)c1nsnc21`: the IC50 in test [1], in test [2] and in test [3] was greater than 100 µM in each case.

Turning to `COc1ccc(S(=O)(=O)c2cc3c(c4nsnc24)C(=O)c2ccccc2C3=O)cc1`, the IC50 in test [1], in test [2] and in test [3] was greater than 50 µM in each case.

Turning to `O=C1c2ccccc2C(=O)c2c1cc(NC1CCCCC1)c1nsnc21`, the IC50 in test [1] amounted to 3.8 µM; in test [2], 5.1 µM; in test [3], 4.1 µM.

`O=C1c2ccccc2C(=O)c2c1cc(N1CCN(Cc3ccccc3)CC1)c1nsnc21`: the IC50 in test [1], in test [2] and in test [3] was greater than 100 µM in each case.

In the case of `CCOc1cccc(Sc2cc3c(c4nsnc24)C(=O)c2ccccc2C3=O)c1`, the IC50 in test [1], in test [2] and in test [3] was greater than 50 µM throughout.

Consider `CC(C)c1ccc(S(=O)(=O)c2cc3c(c4nsnc24)C(=O)c2ccccc2C3=O)cc1`, for which the figures for the IC50 in test [1], in test [2] and in test [3] were greater than 100 µM, 27 µM and 83 µM, respectively.

For the compound `CCOc1ccc(Nc2cc3c(c4nsnc24)C(=O)c2ccccc2C3=O)cc1`, the IC50 in test [1] was greater than 100 µM; in test [2], 100 µM; in test [3] it was 91 µM.

Consider `O=C1c2ccccc2C(=O)c2c1cc(Sc1ccc(F)cc1)c1nsnc21`, for which the IC50 is greater than 50 µM in test [1], 9.8 µM in test [2] and 20 µM in test [3].
